Measured values taken from ChEMBL document CHEMBL5726941, “Naphthyridine compounds, medical combinations and use thereof” (2018).

Target: Hepatocyte growth factor receptor (Homo sapiens, UniProt P08581)
Assay: Inhibition Assay: A study on inhibition of protein kinases activity at in vitro biochemical levelMaterial and method: kinases such as c-Met, VEGFR-2, Axl and RET, obtained from Invitrogen; HTRF KinEASE; TK kit (Cisbio Company); 384-well plate (Greiner Company); ATP (Sigma Company), MgCl2 (Sigma Company); PHERAstar FS multifunctional plate reader (BMG Company); conventional centrifuge (StaiteXiangyi Company); incubator (Binder Company). […] Meanwhile, 4 μL 1.33× enzymatic buffer is added as the negative control. 2 μL compound working solution is added into each well, and 2 μL 8% DMSO in water is added as zero compound level control (i.e., positive control). At 25° C. (or 30 C), incubate for 5-10 min; add 2 μL substrate working solution into each well to initiate the enzymatic reaction. Allow to react while shaking at 25° C. (or 30° C.) for 15-60 min.

Hepatocyte growth factor receptor, sequence (P08581 whole entry): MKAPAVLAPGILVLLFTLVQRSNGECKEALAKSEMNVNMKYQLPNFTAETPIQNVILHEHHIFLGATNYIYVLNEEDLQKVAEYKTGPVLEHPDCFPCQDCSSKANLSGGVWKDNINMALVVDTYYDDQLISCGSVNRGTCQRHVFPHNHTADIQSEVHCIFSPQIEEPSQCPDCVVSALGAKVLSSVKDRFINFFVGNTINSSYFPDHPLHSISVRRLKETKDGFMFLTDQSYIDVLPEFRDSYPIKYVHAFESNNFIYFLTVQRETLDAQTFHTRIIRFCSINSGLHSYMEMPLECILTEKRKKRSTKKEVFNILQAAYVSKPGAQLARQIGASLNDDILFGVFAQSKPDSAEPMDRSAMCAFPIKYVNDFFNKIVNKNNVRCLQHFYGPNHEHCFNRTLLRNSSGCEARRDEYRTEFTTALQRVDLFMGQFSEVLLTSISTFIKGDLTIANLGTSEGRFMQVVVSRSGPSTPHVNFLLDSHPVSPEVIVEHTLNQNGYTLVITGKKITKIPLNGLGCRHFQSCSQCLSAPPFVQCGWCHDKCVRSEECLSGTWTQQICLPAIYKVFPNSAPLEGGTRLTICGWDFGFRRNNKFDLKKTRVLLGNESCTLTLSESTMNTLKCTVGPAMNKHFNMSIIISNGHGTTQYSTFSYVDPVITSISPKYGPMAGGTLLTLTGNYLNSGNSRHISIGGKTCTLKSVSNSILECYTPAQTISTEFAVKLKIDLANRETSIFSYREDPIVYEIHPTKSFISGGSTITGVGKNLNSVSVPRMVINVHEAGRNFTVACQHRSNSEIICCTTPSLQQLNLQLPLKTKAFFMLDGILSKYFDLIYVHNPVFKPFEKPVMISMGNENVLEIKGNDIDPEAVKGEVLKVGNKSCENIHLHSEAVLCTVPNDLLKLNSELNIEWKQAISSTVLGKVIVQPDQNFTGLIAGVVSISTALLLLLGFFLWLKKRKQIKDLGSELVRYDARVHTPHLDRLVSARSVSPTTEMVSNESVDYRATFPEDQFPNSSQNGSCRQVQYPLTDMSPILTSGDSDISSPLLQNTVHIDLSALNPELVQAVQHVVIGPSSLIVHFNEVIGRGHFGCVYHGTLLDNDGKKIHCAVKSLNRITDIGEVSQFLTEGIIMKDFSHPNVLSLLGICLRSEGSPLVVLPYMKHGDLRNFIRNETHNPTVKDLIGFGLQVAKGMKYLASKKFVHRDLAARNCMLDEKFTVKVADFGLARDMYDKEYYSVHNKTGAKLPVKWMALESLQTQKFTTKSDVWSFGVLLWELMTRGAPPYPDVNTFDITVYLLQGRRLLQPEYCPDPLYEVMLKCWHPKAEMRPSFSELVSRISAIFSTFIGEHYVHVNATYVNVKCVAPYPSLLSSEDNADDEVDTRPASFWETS

- IC50: 143 nM
SMILES: COc1cc2nccc(Oc3ccc(Nc4nccc5[nH]cc(-c6ccc(F)cc6)c(=O)c45)cc3F)c2cc1OC
